In PubChem BioAssay AID256 (DTP/NCI, 2004):
“And” between values parts separate entries of the source, which are not always exact repeats. Identical values can stand only once. Inconclusive results and toxic doses are left out. Rule for the calls: active = survival T/C of 150% or more; inactive = T/C below 125% in these data.

Tested on: CD2F1 mice, L1210 leukemia ip, survival T/C
Assay: NCI In Vivo Anticancer Drug Screen. Data for tumor model L1210 Leukemia (intraperitoneal) in CD2F1 (CDF1) mice
Settings: higher = longer survival
Procedure, shortened: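 Each value reflects a quotient of treated over vehicle control outcomes in mice with a transplanted tumor.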

[1] = endpoint: mean survival time, dose: 25.0 mg/kg/injection, schedule: Q01DX009 (ip), vehicle: saline
[2] = endpoint: mean survival time, dose: 50.0 mg/kg/injection, schedule: Q01DX009 (ip), vehicle: saline
[3] = endpoint: mean survival time, dose: 100.0 mg/kg/injection, schedule: Q01DX009 (ip), vehicle: saline
[4] = endpoint: mean survival time, dose: 100.0 mg/kg/injection, schedule: Q01DX001 (ip), vehicle: saline with Tween-80
[5] = endpoint: mean survival time, dose: 400.0 mg/kg/injection, schedule: Q01DX001 (ip), vehicle: saline with Tween-80
[6] = endpoint: mean survival time, dose: 100.0 mg/kg/injection, schedule: Q04DX003 (ip), vehicle: saline with Tween-80
[7] = endpoint: mean survival time, dose: 200.0 mg/kg/injection, schedule: Q04DX003 (ip), vehicle: saline with Tween-80
[8] = endpoint: mean survival time, dose: 100.0 mg/kg/injection, schedule: Q04DX002 (ip), vehicle: saline with Tween-80
[9] = endpoint: mean survival time, dose: 400.0 mg/kg/injection, schedule: Q04DX002 (ip), vehicle: saline with Tween-80
[10] = endpoint: mean survival time, dose: 100.0 mg/kg/injection, schedule: Q01DX009 (ip), vehicle: saline with Tween-80
[11] = endpoint: mean survival time, dose: 200.0 mg/kg/injection, schedule: Q01DX009 (ip), vehicle: saline with Tween-80
[12] = endpoint: mean survival time, dose: 400.0 mg/kg/injection, schedule: Q01DX009 (ip), vehicle: saline with Tween-80
[13] = endpoint: mean survival time, dose: 400.0 mg/kg/injection, schedule: Q04DX003 (ip), vehicle: saline with Tween-80

Measured: T/C

O=[N+]([O-])c1ccc(N/N=C/c2ccccn2)cc1
inactive: endpoint: mean survival time, dose: 100.0 mg/kg/injection, schedule: Q04DX003 (ip), vehicle: Klucel (hydroxypropylcellulose) (HPC) 96 % of control | endpoint: mean survival time, dose: 200.0 mg/kg/injection, schedule: Q04DX003 (ip), vehicle: Klucel (hydroxypropylcellulose) (HPC) 89 % of control | endpoint: mean survival time, dose: 400.0 mg/kg/injection, schedule: Q04DX003 (ip), vehicle: Klucel (hydroxypropylcellulose) (HPC) 94 % of control

c1cc[n+](Cc2nc3ccccc3[nH]2)cc1
inactive: [1] 97 % of control and 100 % of control | endpoint: mean survival time, dose: 25.0 mg/kg/injection, schedule: Q04DX003 (ip), vehicle: saline 103 % of control and 100 % of control | [2] 100 % of control | endpoint: mean survival time, dose: 50.0 mg/kg/injection, schedule: Q04DX003 (ip), vehicle: saline 100 % of control and 106 % of control | [3] 101 % of control and 97 % of control | endpoint: mean survival time, dose: 100.0 mg/kg/injection, schedule: Q04DX003 (ip), vehicle: saline 97 % of control and 103 % of control

CCCCCCCCCCCCCCCCCCSc1ccc(Br)cc1
inactive: [4] 92 % of control | [5] 86 % of control

O=S(c1cc(Cl)ccc1O)c1cc(Cl)ccc1O
inactive: [6] 98 % of control | [7] 89 % of control

ICC1CCC(CI)CC1 (stereo not given)
inactive: endpoint: mean survival time, dose: 100.0 mg/kg/injection, schedule: Q01DX001 (ip), vehicle: saline 98 % of control | endpoint: mean survival time, dose: 200.0 mg/kg/injection, schedule: Q01DX001 (ip), vehicle: saline 96 % of control | endpoint: mean survival time, dose: 400.0 mg/kg/injection, schedule: Q01DX001 (ip), vehicle: saline 93 % of control

COc1ccc(NC(C)=O)c(O)c1C
inactive: [4] 95 % of control | [5] 90 % of control

Nc1nc(N)c2c(n1)=NC(c1cccc3ccccc13)N=2 (stereo not given)
inactive: endpoint: mean survival time, dose: 6.25 mg/kg/injection, schedule: Q01DX005 (ip), vehicle: water 92 % of control | endpoint: mean survival time, dose: 12.5 mg/kg/injection, schedule: Q01DX005 (ip), vehicle: water 89 % of control | endpoint: mean survival time, dose: 25.0 mg/kg/injection, schedule: Q01DX005 (ip), vehicle: water 91 % of control | endpoint: mean survival time, dose: 50.0 mg/kg/injection, schedule: Q01DX005 (ip), vehicle: water 92 % of control | endpoint: mean survival time, dose: 100.0 mg/kg/injection, schedule: Q01DX005 (ip), vehicle: water 89 % of control | endpoint: mean survival time, dose: 200.0 mg/kg/injection, schedule: Q01DX005 (ip), vehicle: other 96 % of control | endpoint: mean survival time, dose: 400.0 mg/kg/injection, schedule: Q01DX005 (ip), vehicle: other 96 % of control

O=C(Nc1ccc(Cl)c(Cl)c1)c1ccc(Cl)c(Cl)c1
inactive: [8] 95 % of control | [9] 91 % of control

CC(C)c1ccc2c(c1)CCC1C(C)(CN)CCCC21C (stereo not given) (tested in a mixture with another compound)
inactive: endpoint: mean survival time, dose: 6.25 mg/kg/injection, schedule: Q01DX001 (ip), vehicle: saline with Tween-80 91 % of control | endpoint: mean survival time, dose: 6.25 mg/kg/injection, schedule: Q01DX009 (ip), vehicle: saline with Tween-80 101 % of control | endpoint: mean survival time, dose: 12.5 mg/kg/injection, schedule: Q01DX001 (ip), vehicle: saline with Tween-80 96 % of control | endpoint: mean survival time, dose: 12.5 mg/kg/injection, schedule: Q01DX009 (ip), vehicle: saline with Tween-80 101 % of control | endpoint: mean survival time, dose: 25.0 mg/kg/injection, schedule: Q01DX001 (ip), vehicle: saline with Tween-80 87 % of control | endpoint: mean survival time, dose: 25.0 mg/kg/injection, schedule: Q01DX009 (ip), vehicle: saline with Tween-80 101 % of control

CCCCCCCCCCCCCC[n+]1ccc(C#N)cc1
inactive: endpoint: mean survival time, dose: 7.5 mg/kg/injection, schedule: Q01DX001 (ip), vehicle: saline 97 % of control | endpoint: mean survival time, dose: 7.5 mg/kg/injection, schedule: Q01DX009 (ip), vehicle: saline 100 % of control | endpoint: mean survival time, dose: 15.0 mg/kg/injection, schedule: Q01DX001 (ip), vehicle: saline 92 % of control | endpoint: mean survival time, dose: 15.0 mg/kg/injection, schedule: Q01DX009 (ip), vehicle: saline 103 % of control | endpoint: mean survival time, dose: 30.0 mg/kg/injection, schedule: Q01DX001 (ip), vehicle: saline 100 % of control | endpoint: mean survival time, dose: 30.0 mg/kg/injection, schedule: Q01DX009 (ip), vehicle: saline 107 % of control

S=C(Sc1ccccc1)Sc1ccccc1
inactive: [10] 88 % of control | [6] 92 % of control | [11] 95 % of control | [7] 103 % of control | [12] 91 % of control | [13] 104 % of control

N#CCCN(CC(O)c1cc2ccccc2c2ccccc12)C1CCCCC1 (stereo not given)
inactive: [4] 91 % of control | [10] 106 % of control | endpoint: mean survival time, dose: 200.0 mg/kg/injection, schedule: Q01DX001 (ip), vehicle: saline with Tween-80 90 % of control | [11] 97 % of control | [5] 92 % of control | [12] 97 % of control

Cn1c(=O)c2c(n(C)c1=O)n1cnnc1n2C
inactive: endpoint: mean survival time, dose: 12.5 mg/kg/injection, schedule: Q01DX005 (ip), vehicle: distilled water + Tween-80 95 % of control | endpoint: mean survival time, dose: 25.0 mg/kg/injection, schedule: Q01DX005 (ip), vehicle: distilled water + Tween-80 100 % of control | endpoint: mean survival time, dose: 50.0 mg/kg/injection, schedule: Q01DX005 (ip), vehicle: distilled water + Tween-80 100 % of control | endpoint: mean survival time, dose: 100.0 mg/kg/injection, schedule: Q01DX005 (ip), vehicle: distilled water + Tween-80 100 % of control | endpoint: mean survival time, dose: 200.0 mg/kg/injection, schedule: Q01DX005 (ip), vehicle: distilled water + Tween-80 89 % of control

c1ccc(SSc2ccccc2)cc1
inactive: [6] 100 % of control

c1ccc(C(c2ccccc2)c2ccccc2)cc1
inactive: [6] 97 % of control | [7] 98 % of control

Oc1ccc(Cl)cc1Sc1cc(Cl)ccc1O
inactive: endpoint: mean survival time, dose: 100.0 mg/kg/injection, schedule: Q04DX003 (ip), vehicle: other 108 % of control

c1ccc2cc3nc4cc5ccccc5cc4nc3cc2c1
inactive: [6] 95 % of control | [7] 103 % of control | [13] 91 % of control

Clc1ccc(CSC2=NCCN2)cc1
inactive: endpoint: mean survival time, dose: 12.5 mg/kg/injection, schedule: Q01DX009 (ip), vehicle: saline 87 % of control | [1] 87 % of control | [2] 90 % of control

CC(=O)Nc1ccc(OC(=O)Nc2cccc(F)c2)cc1
inactive: [10] 91 % of control | [11] 95 % of control | [12] 91 % of control

CCCCOC(=O)c1ccc2c(ccc[n+]2C)c1
inactive: endpoint: mean survival time, dose: 37.5 mg/kg/injection, schedule: Q01DX009 (ip), vehicle: saline with Tween-80 97 % of control | endpoint: mean survival time, dose: 75.0 mg/kg/injection, schedule: Q01DX009 (ip), vehicle: saline with Tween-80 103 % of control | endpoint: mean survival time, dose: 150.0 mg/kg/injection, schedule: Q01DX009 (ip), vehicle: saline with Tween-80 107 % of control

Cc1ccccc1OCC(=O)O
inactive: [2] 104 % of control | [3] 101 % of control | endpoint: mean survival time, dose: 200.0 mg/kg/injection, schedule: Q01DX009 (ip), vehicle: saline 93 % of control

O=[N+]([O-])c1cccc(N=C(Nc2cccc([N+](=O)[O-])c2)c2ccccc2)c1
inactive: [6] 113 % of control | [7] 107 % of control | [13] 103 % of control

CSC(SC)=C1C(=O)NC(=O)NC1=O
inactive: endpoint: median survival time, dose: 3.12 mg/kg/injection, schedule: Q01DX009 (ip), vehicle: saline 101 % of control | endpoint: median survival time, dose: 6.25 mg/kg/injection, schedule: Q01DX009 (ip), vehicle: saline 112 % of control | endpoint: median survival time, dose: 12.5 mg/kg/injection, schedule: Q01DX009 (ip), vehicle: saline 109 % of control | endpoint: median survival time, dose: 25.0 mg/kg/injection, schedule: Q01DX009 (ip), vehicle: saline 109 % of control | endpoint: median survival time, dose: 50.0 mg/kg/injection, schedule: Q01DX009 (ip), vehicle: saline 116 % of control

COc1ccccc1NC(=O)Nc1cccc([N+](=O)[O-])c1OC
inactive: [8] 97 % of control | endpoint: mean survival time, dose: 200.0 mg/kg/injection, schedule: Q04DX002 (ip), vehicle: saline with Tween-80 87 % of control | [9] 94 % of control

CCCCCCCCCC[n+]1ccc(C#N)cc1
inactive: endpoint: mean survival time, dose: 9.38 mg/kg/injection, schedule: Q01DX001 (ip), vehicle: saline 101 % of control | endpoint: mean survival time, dose: 18.75 mg/kg/injection, schedule: Q01DX001 (ip), vehicle: saline 103 % of control

CC(=O)CC(=O)c1ccc(C(=O)CC(C)=O)cc1.[Fe]
inactive: [6] 96 % of control | [7] 89 % of control | [13] 104 % of control

COc1cccc(C(O)c2ccncc2C)c1OC (stereo not given)
inactive: endpoint: mean survival time, dose: 25.0 mg/kg/injection, schedule: Q01DX009 (ip), vehicle: Klucel (hydroxypropylcellulose) (HPC) 97 % of control | endpoint: mean survival time, dose: 50.0 mg/kg/injection, schedule: Q01DX009 (ip), vehicle: Klucel (hydroxypropylcellulose) (HPC) 97 % of control | endpoint: mean survival time, dose: 100.0 mg/kg/injection, schedule: Q01DX009 (ip), vehicle: Klucel (hydroxypropylcellulose) (HPC) 95 % of control | endpoint: mean survival time, dose: 200.0 mg/kg/injection, schedule: Q01DX009 (ip), vehicle: Klucel (hydroxypropylcellulose) (HPC) 98 % of control
